Each block holds one molecule with its values, some of them ahead of it.
Assays:
[1] = Pharmacokinetic evaluation in rats; assay type: in vivo; settings: male, Sprague-Dawley, plasma, 5 mg/kg; rat, PO
Procedure: 8 male Sprague-Dawley rats (7-8 weeks old, and weighing approximately 210 g) were divided into two groups with 4 rats in each group, a single oral dose of 5 mg/kg given to the two groups were (a) control group: (3β)-17-(3)-pyridyl)androst-5,16-dienol and (b) test group: Examples 1-13, and pharmacokinetic differences between the two groups were compared.
The rats were raised on standard food and water. Fasting was started 16 hours before the test. The drug was dissolved with PEG400 and dimethyl sulfoxide. The blood samples were collected from eyelids at the time points of 0.083 hours, 0.25 hours, 0.5 hours, […], 2 hours, 4 hours, 6 hours, 8 hours, 12 hours, and 24 hours after administration.
Rats were briefly anesthetized after inhalation of diethyl ether and 300 μL of blood sample was collected from the eyelids into test tubes. There was 30 μL of 1% heparin salt solution in the test tube. Tubes were dried at 60° C. overnight before use. After the blood sample was collected at a later time point, the rats were sacrificed after ether anesthesia.
Immediately after the collection of the blood sample, the test tube was gently inverted at least 5 times to ensure sufficient mixing and then placed on ice. The blood sample was centrifuged at 5000 rpm at 4° C. for 5 minutes to separate the plasma from the red blood cells. 100 μL of plasma was aspirated into a clean plastic centrifuge tube with a pipette, marking with the name of the compound and time point. Plasma was stored at −80° C. prior to analysis. The concentration of the compound of the present disclosure in plasma was determined by LC-MS/MS. The pharmacokinetic parameters were calculated based on the blood concentration of each animal at different time points.

[2] = Metabolic stability evaluation in human liver microsomes; assay type: in vitro ADME; settings: for half-life of the deuterated prodrug: metabolized abiraterone of the prodrug, liver microsomes, versus abiraterone acetate; for half-life of the deuterated prodrug / clearance compared to the non-deuterated compound / half-life compared to the non-deuterated compound: in words; for clearance compared to the non-deuterated compound / half-life compared to the non-deuterated compound / half-life at 1 μM / microsomal CLint at 1 μM: human liver microsome; for half-life at 1 μM / microsomal CLint at 1 μM: human liver microsomes, pH 7.4, 1 μM compound, 0.5 mg/mL protein
Procedure: Experiments in microsomes: Human liver microsomes: 0.5 mg/mL, Xenotech; Coenzyme (NADPH/NADH): 1 mM, Sigma Life Science; Magnesium chloride: 5 mM, 100 mM phosphate buffer (pH 7.4).
Preparation of stock solution: Powder of the example compound was accurately weighed and dissolved in DMSO to 5 mM.
Preparation of phosphate buffer (100 mM, pH7.4): A pre-formulated 0.5M potassium dihydrogen phosphate (150 mL) was mixed with 0.5M dibasic potassium phosphate (700 mL). The pH of the mixture was adjusted to 7.4 with 0.5M dibasic potassium phosphate solution. The mixture was diluted 5-fold with ultrapure water before use, and magnesium chloride was added to obtain a phosphate buffer (100 mM) containing 100 mM potassium phosphate, 3.3 mM magnesium chloride, pH 7.4.
A NADPH regeneration system solution (containing 6.5 mM NADP, 16.5 mM G-6-P, 3 U/mL G-6-P D, 3.3 mM magnesium chloride) was prepared and placed on wet ice prior to use.
Preparation of stop solution: acetonitrile solution containing 50 ng/mL propranolol hydrochloride and 200 ng/mL tolbutamide (internal standard). 25057.5 μL of phosphate buffer (pH 7.4) was taken into a 50 mL centrifuge tube, to which 812.5 μL human liver microsomes were added, and mixed to obtain a liver microsome dilution solution with a protein concentration of 0.625 mg/mL. 25057.5 μL of phosphate buffer (pH 7.4) was taken into a 50 mL centrifuge tube, to which 812.5 μL SD rat liver microsomes were added, and mixed to obtain a liver microsome dilution solution with a protein concentration of 0.625 mg/mL.
Incubation of the samples: The stock solution of the respective compound was respectively diluted to 0.25 mM with an aqueous solution containing 70% acetonitrile, and used as a working solution, ready for use. 398 μL of the dilution solution of human liver microsomes or rat liver microsome were added to a 96-well incubation plate (N=2), respectively, and 2 μL of 0.25 mM working solution was added and mixed.
Metabolic stability assay: 300 μL of pre-chilled stop solution was added to each well of a 96-well deep well plate and placed on ice as a stop plate. The 96 well incubation plate and NADPH regeneration system were placed in a 37° C. water bath box, shaken at 100 rpm and pre-incubated for 5 min. 80 μL of incubation solution was taken out from each well of the incubation plate and added to the stop plate, mixed, and replenished with 20 μL of NADPH regeneration system solution as a 0-min sample. 80 μL of NADPH regeneration system solution was added to each well of the incubation plate to start the reaction and start counting. […] Separately, 100 μL of the reaction solution was taken at 10, 30, and 90 min reaction, respectively, added to a stop plate, and vortexed for 3 minutes to terminate the reaction. The stop plate was centrifuged at 5000×g at 4° C. for 4 min. 100 μL of the supernatant was added to a 96-well plate to which 100 μL of distilled water was previously added, mixed, and analyzed by LC-MS/MS.
Data analysis: The peak areas of the corresponding compound and internal standard were detected by LC-MS/MS system, and the ratio of the peak area of the compound to the internal standard was calculated.

[3] = Pharmacokinetic evaluation in rats; assay type: in vivo; settings: male, Sprague-Dawley, plasma; rat, IV
Human CYP17 [4] = target: T1, Human CYP17 (Homo sapiens, UniProt P05093); assay: CYP17 hydroxylase assay; assay type: biochemical; set-up: made in house; host or cells: E. coli (membrane preparation)
T1 sequence (P05093 1-508): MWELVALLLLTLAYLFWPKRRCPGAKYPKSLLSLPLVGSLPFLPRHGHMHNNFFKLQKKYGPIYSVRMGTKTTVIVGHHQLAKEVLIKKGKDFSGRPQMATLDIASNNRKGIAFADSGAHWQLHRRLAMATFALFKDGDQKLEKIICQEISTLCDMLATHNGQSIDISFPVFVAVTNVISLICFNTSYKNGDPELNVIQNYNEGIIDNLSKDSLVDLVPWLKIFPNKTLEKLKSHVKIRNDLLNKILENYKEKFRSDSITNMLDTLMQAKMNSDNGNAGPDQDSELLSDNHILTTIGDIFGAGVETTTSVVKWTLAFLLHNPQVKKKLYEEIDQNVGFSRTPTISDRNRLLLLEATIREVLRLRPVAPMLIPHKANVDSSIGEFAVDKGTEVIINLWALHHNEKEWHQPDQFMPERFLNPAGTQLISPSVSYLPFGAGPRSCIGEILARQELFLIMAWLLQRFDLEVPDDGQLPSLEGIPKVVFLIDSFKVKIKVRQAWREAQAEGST
Procedure: E. coli was transformed to express active human CYP17, and a membrane prepared from the transformed E. coli was used as a source of the enzyme. […] The reaction mixture was incubated at 37° C. for 120 minutes and 200 μL of 0.02 N HCl in acetonitrile was added to stop the reaction. The sample was then spun at […] and 200 μL of the supernatant was transferred to a clean tube for determination. The reaction product 17-alpha pregnenolone was measured by LC/MS.

Human CYP17 [5] = target: T1, Human CYP17; assay: CYP17 lyase assay; assay type: biochemical; set-up: made in house; host or cells: HEK293 cells (microsomes)
Procedure: Human CYP17 was expressed in HEK293 cells and microsome were prepared, which was subsequently used as a source of enzyme for lyase assays. The reaction includes 200 nM [3H]-hydroxy pregnenolone (ARC), 200 nM 17-hydroxy pregnenolone (Sigma), 2 mM NADPH (Calbiochem), and CYP 17-HEK293 microsomes, which were incubated for 20 minutes at room temperature in the presence of DMSO or a test compound. Compounds were dissolved in DMSO and serially diluted. The reaction was stopped by the addition of 0.2N HCl and the product was captured using an anti-mouse YSi SPA Bead (GE) conjugated anti-DHEA monoclonal antibody (Abcam). The signal intensity determined by Packard Top Count was used to calculate the percent inhibition and IC50 values.

[6] = test system: castration-resistant prostate cancer; settings: patients, cited from earlier work
[7] = test system: PSA protein secretion, LNcaP cells; assay: Inhibition of cellular PSA protein secretion; assay type: cell-based; settings: Homo sapiens, 1 nM DHT, 48 hours, ELISA, read-out: Inhibition of PSA proteins, IC50
Procedure: Experimental steps: 1. The original culture medium was replaced with culture medium containing 10% Charcoal Stripped FBS, and cells were allowed to starve in culture flasks for 24 hours; 2. Cells were digested and counted, and LNcaP cells were seeded into 96-well plates at 10,000 cells/well and incubated overnight; 3. The DHT and compound were added to the existing medium at a set concentration, the final concentration of DHT was 1 nM, the initial concentration of the compound was 50000 nM, 5-fold dilution was carried out, 8 concentration gradients were obtained, and incubation was carried out for 48 hours; 4. Cell culture supernatants were collected and PSA protein levels were measured according to the ELISA kit instructions. IC50 was calculated using GraphPad Prism based on the inhibition rate at each concentration, and the results were shown in Table 2 below.

[8] = hCYP17 E. coli membrane, 25 μM pregnenolone, 37° C. 120 minutes, read-out: CYP17 hydroxylase IC50
[9] = CYP17-HEK293 microsomes, 20 minutes at room temperature, read-out: CYP17 lyase IC50
[10] = abiraterone acetate plus prednisone

Compound: [2H]c1ccc(C2=CCC3C4CC=C5C[C@@H](O)CC[C@]5(C)C4CC[C@]23C)cn1 (stereo partly drawn) [Example 1, (3β)-17-(3-pyridyl-6-d)androst-5,16-dienol]
IC50 (Human CYP17 [4]; [8]): < 20 nM | clearance compared to the non-deuterated compound [2]: reduced | half-life compared to the non-deuterated compound [2]: prolonged | half-life at 1 μM [2]: > 145 min | microsomal CLint at 1 μM [2]: < 9.6 µL/min/mg | IC50 (Human CYP17 [5]; [9]): < 10 nM

Compound: [2H]C1=C(c2cccnc2)[C@@]2(C)CCC3C(CC=C4C[C@@H](O)CC[C@@]43C)C2C1 (stereo partly drawn) [Example 8, (3β)-17-(3-pyridyl)androst-5,16-dienol-16-d]
IC50 (Human CYP17 [4]): < 20 nM | clearance compared to the non-deuterated compound [2]: reduced | half-life compared to the non-deuterated compound [2]: prolonged | half-life at 1 μM [2]: 51.3 min | microsomal CLint at 1 μM [2]: 24.3 µL/min/mg | IC50 (Human CYP17 [5]): < 10 nM

Compound: [2H]c1cncc(C2=CCC3C4CC=C5C[C@@H](OC(C)=O)CC[C@]5(C)C4CC[C@]23C)c1 (stereo partly drawn) [Example 3, (3β)-17-(3-pyridyl-5-d)androst-5,16-dienyl Acetate]
half-life of the deuterated prodrug [2]: significantly prolonged

Compound: [2H]C1=C(c2cccnc2)[C@@]2(C)CCC3C(CCC4=CC(=O)CC[C@@]43C)C2C1 (stereo partly drawn) [Example 13, (3β)-17-(3-pyridyl)-16-d-androst-4,16-dien-3-one]
IC50 [7]: < 10 nM | IC50 (Human CYP17 [4]; [8]): < 20 nM | IC50 (Human CYP17 [5]; [9]): < 10 nM

Further lines, with some results ahead:

AUC(0-inf) [1]: 2550 ng·h/mL | AUC(0-t) [1]: 2480 ng·h/mL | Cmax [1]: 549 ng/mL | Tmax [1]: 1.67 h | half-life of the deuterated prodrug [2]: significantly prolonged | Cmax [3]: 43.6 ng/mL | Tmax [3]: 17.3 h
Compound: [2H]C1=C(c2cccnc2)[C@@]2(C)CCC3C(CC=C4C[C@@H](OC(=O)C([2H])([2H])[2H])CC[C@@]43C)C2C1 (stereo partly drawn) [Example 9, (3β)-17-(3-pyridyl)androst-5,16-dienyl-16-d d3-acetate]

half-life at 1 μM [2]: 40 min | microsomal CLint at 1 μM [2]: 34.7 µL/min/mg | IC50 (Human CYP17 [5]; [9]): < 10 nM
Compound: C[C@]12CC[C@H](O)CC1=CC[C@@H]1[C@@H]2CC[C@]2(C)C(c3cccnc3)=CC[C@@H]12 [Abiraterone, (3β)-17-(3-pyridinyl)androst-5,16-dienol, reference compound]

AUC(0-inf) [1]: 2440 ng·h/mL | AUC(0-t) [1]: 2420 ng·h/mL | Cmax [1]: 813 ng/mL | Tmax [1]: 1.67 h | AUC(0-inf) [3]: 274 ng·h/mL | AUC(0-t) [3]: 224 ng·h/mL | Cmax [3]: 24.1 ng/mL | Tmax [3]: 3 h
Compound: [2H]c1ccc(C2=CCC3C4CC=C5C[C@@H](OC(C)=O)CC[C@]5(C)C4CC[C@]23C)cn1 (stereo partly drawn) [Example 5, (3β)-17-(3-pyridyl-6-d)androst-5,16-dienyl Acetate]

AUC(0-inf) [1]: 1320 ng·h/mL | AUC(0-t) [1]: 1290 ng·h/mL | Cmax [1]: 506 ng/mL | Tmax [1]: 1.33 h | AUC(0-inf) [3]: 192 ng·h/mL | AUC(0-t) [3]: 110 ng·h/mL | Cmax [3]: 10.6 ng/mL | Tmax [3]: 2 h
Compound: CC(=O)O[C@H]1CC[C@@]2(C)C(=CC[C@@H]3[C@@H]2CC[C@]2(C)C(c4cccnc4)=CC[C@@H]32)C1 [Abiraterone acetate, reference compound]
risk of death reduced ([6]; abiraterone acetate plus prednisone vs placebo plus prednisone): 35% | Median survival [6, 10]: 14.8 months | Median survival longer than placebo plus prednisone [6, 10]: 3.9 months

half-life of the deuterated prodrug [2]: significantly prolonged
Compound: [2H]c1cncc(C2=CCC3C4CC=C5C[C@@H](OC(=O)C([2H])([2H])[2H])CC[C@]5(C)C4CC[C@]23C)c1 (stereo partly drawn) [Example 7, (3β)-17-(3-pyridyl-5-d)androst-5,16-dienyl d3-acetate]

IC50 (Human CYP17 [4]; [8]): < 20 nM | clearance compared to the non-deuterated compound [2]: reduced | half-life compared to the non-deuterated compound [2]: prolonged | half-life at 1 μM [2]: 71.2 min | microsomal CLint at 1 μM [2]: 19.5 µL/min/mg | IC50 (Human CYP17 [5]; [9]): < 10 nM
Compound: [2H]c1cncc(C2=CCC3C4CC=C5C[C@@H](O)CC[C@]5(C)C4CC[C@]23C)c1 (stereo partly drawn) [Example 2, (3β)-17-(3-pyridyl-5-d)androst-5,16-dienol]

half-life of the deuterated prodrug [2]: significantly prolonged
Compound: [2H]C([2H])([2H])C(=O)O[C@H]1CC[C@@]2(C)C(=CCC3C2CC[C@]2(C)C(c4cccnc4)=CCC32)C1 (stereo partly drawn) [Example 4, (3β)-17-(3-pyridyl)androst-5,16-dienyl d3-acetate]
